The nature of series [1]: Water solubility. To be noted: read-out: water-soluble at. It is filed as physicochemical.
Series [2] can be described thus: Muscle levels 24 hours after intramuscular injection. In kind it is in vivo, Balb/C mice. Particulars: for detection in muscle 24 hours after intramuscular injection / concentration at 24 h: 100 μg; for concentration at 24 h: Balb/C, mouse, muscle, intramuscular, 100 μg i.m.
The nature of series [3]: Model of in vivo desorption from Al—H. To be noted: 37° C. It is filed as in vitro ADME.
Series [4] is classed as physicochemical. To be noted: SDS-PAGE of supernatants.
Series [5] addresses T1, human TLR7 (Homo sapiens, UniProt Q9NYK1).
T1 construct: expressed in transfected cells; host or cells: HEK293
T1 sequence (Q9NYK1 27-1049): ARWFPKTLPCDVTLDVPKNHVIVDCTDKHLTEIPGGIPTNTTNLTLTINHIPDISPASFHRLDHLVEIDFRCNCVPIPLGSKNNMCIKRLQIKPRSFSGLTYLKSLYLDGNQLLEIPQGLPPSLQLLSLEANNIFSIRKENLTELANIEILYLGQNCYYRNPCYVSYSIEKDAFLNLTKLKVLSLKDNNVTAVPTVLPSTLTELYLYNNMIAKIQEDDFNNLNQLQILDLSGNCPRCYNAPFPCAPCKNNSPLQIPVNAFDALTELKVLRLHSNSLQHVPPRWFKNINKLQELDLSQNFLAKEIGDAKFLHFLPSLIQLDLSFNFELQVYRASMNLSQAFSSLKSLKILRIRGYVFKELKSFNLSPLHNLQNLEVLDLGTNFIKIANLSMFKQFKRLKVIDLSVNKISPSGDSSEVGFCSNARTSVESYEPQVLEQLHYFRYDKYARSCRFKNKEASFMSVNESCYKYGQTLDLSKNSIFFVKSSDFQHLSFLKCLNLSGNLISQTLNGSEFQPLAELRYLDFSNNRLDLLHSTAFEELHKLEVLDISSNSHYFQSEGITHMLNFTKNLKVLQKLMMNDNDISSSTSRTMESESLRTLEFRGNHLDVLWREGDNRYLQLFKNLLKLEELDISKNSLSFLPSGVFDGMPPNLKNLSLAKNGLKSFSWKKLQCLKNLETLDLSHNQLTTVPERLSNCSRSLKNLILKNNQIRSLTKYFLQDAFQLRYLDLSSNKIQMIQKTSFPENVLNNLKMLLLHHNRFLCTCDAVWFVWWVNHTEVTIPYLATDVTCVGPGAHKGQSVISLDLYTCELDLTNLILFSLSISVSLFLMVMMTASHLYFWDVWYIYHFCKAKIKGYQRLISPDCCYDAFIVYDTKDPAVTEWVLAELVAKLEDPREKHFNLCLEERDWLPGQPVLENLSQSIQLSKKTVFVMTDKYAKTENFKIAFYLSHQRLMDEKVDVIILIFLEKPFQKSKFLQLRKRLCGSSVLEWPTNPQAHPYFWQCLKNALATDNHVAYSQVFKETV
The series is described as follows: HEK293 human TLR7 NF-κB luciferase reporter assay. It is filed as cell-based. Particulars: HEK293 cells. On the procedure: The activity of this compound is assessed in an assay using HEK293 cells which are stably transfected with human TLR7 and an NF-κB-driven luciferase reporter vector (pNifty-Luciferase). As a control assay, normal HEK293 transfected with pNifty-Luc are used. Cells are cultured in DMEM supplemented with 2 mM L-glutamine, 10% heart inactivated FBS, 1% penicillin and streptomycin, 2 μg/ml puromycin and 5 μg/ml of blasticidin. Bright-Glo™ Luciferase assay buffer and substrate are supplied by Promega. Cells are plated at 25,000 cells/well in 384-well plates in a final volume of 50 μl of media. Cells are allowed to adhere to the plates after overnight (18 hours) culture at 37° C. and 5% CO2. Serially-diluted experimental and positive control compounds are then dispensed to each well and incubated for 7 hours at 37° C. and 5% CO2. Cells stimulated with DMSO alone serve as negative controls. After the incubation, 30 μl of the pre-mix assay buffer and substrate buffer are added to each well according to manufacturer's instructions. The luminescence signal is read on a CLIPR machine with an integration time of 20 seconds per plate.
A general note: Reporter assays use an easily measured gene product as a stand-in for the process of interest.

A short description of series [6]: Systemic serum exposure after intramuscular injection. Particulars: Balb/C, mouse; for AUC: im, 100 μg i.m.; for Cmax: intramuscular, 100 μg. It is filed as in vivo, Balb/C mice.
Series [7] relates to serum cytokines. The series is described as follows: Serum cytokines after administration. Particulars: in vivo.
Series [8] concerns serogroup B meningococcus. In kind it is in vivo, CD-1 mice. Particulars: 5CVMB at days 0 & 14 with (b) the agonist compound.
Setting [9] is: SIF (simulated interstitial fluid).
Setting [10] is: 100 ug, compound alone, 24 hours.
Where [11] appears, read: +Al—H (adsorbed), read-out: Levels of compound in muscle 24 hours after injection.
Where [12] appears, read: 100 ug, TLR2 agonists, compound alone.
Where [13] appears, read: TLR2 agonists, +Al—H (adsorbed).

The structures appear in SMILES notation. Read-outs that look alike come from different tables or passages of the source.

With `Cc1cc(OCCCC(F)(F)P(=O)(O)O)ccc1CCc1cnc2c(N)nc3cc(CCC(=O)O)ccc3c2c1` [Compound 3], the solubility in series [1] is greater than 1000 µg/mL. Moreover, the “detection in muscle 24 hours after intramuscular injection” value (from here on “detection in muscle 24 hours”) is recorded as “readily detected” in series [2] (injected with Al—H) and “undetectable” in series [2] (without Al—H (free form)). Also, the “proportion desorbed after 5 hours” value is 5% in series [3] (His buff), 49% in series [3] (Plasma/His buff) and 100% in series [3] (setting [9]). For the same compound, the “adsorption of MenB antigens to Al—H after pre-adsorption of compound” value in series [4] is on record as “completely adsorbed”.

Turning to `Cc1cc(OCCOCCOCCC(F)(F)P(=O)(O)O)ccc1CCc1cnc2c(N)nc3cc(CCC(=O)O)ccc3c2c1` [Compound 4], the solubility in series [1] is greater than 1000 µg/mL. For the same compound, the figures for the “detection in muscle 24 hours” value in series [2] (injected with Al—H) and in series [2] (without Al—H (free form)) were “readily detected” and “undetectable”, respectively. In addition, the entries for the “proportion desorbed after 5 hours” value in series [3] (His buff), in series [3] (Plasma/His buff) and in series [3] (setting [9]) were 4%, 81% and 100%, respectively. Further, in series [4], the “adsorption of MenB antigens to Al—H after pre-adsorption of compound” value is on record as “completely adsorbed”.

As a reminder, the EC50 is the midpoint of the concentration-response curve. Broadly, the AUC is the area under the concentration-time curve, a measure of exposure. A higher AUC goes with high exposure. The Cmax is the highest concentration seen after dosing. In the case of `COCCOc1nc(N)c2nc(O)n(Cc3ccc(CP(=O)(O)O)cc3)c2n1` [Compound 6, (4-((6-amino-2-(2-methoxyethoxy)-8-oxo-7H-purin-9(8H)-yl)methyl)benzyl)phosphonic acid], the solubility in series [1] was greater than 1000 µg/mL. Besides, the response in series [5] was half-maximal at 0.41 µM (EC50). The AUC in series [6] (setting [10]) amounted to 7.18 µM·h; in series [6] (+Al—H (adsorbed), 24 hours), 13.4 µM·h. For the same compound, the peak concentration (Cmax) turned out to be 5520 nM in series [6] (+Al—H (adsorbed)) and 6120 nM in series [6] (compound alone). Further, the “detection in muscle 24 hours” value in series [2] (without Al—H (free form)) is on record as “undetectable”. Moreover, the figures for the concentration at 24 h in series [2] (setting [11]) and in series [2] (compound alone) were 2770 nM and 0 nM, respectively. Also, the “detection in inguinal lymph nodes or in liver” value in series [2] (after 24 hours) is listed as “could not be detected”.

In turn, `CCOCc1nc2c(N)nc3ccccc3c2n1CCOCCP(=O)(O)O` [Compound 7] returned a half-maximal effective concentration (EC50) in series [5] of 66 µM.

In series [5], `CCCCCNc1nc(N)nc(C)c1Cc1ccc(CP(=O)(O)O)cc1OC` [Compound 8] came in with a half-maximal effective concentration (EC50) of 7.3 µM.

As for `CCCCCCCCCCCC(=O)OC[C@H](CSC[C@H](N)C(=O)NC1(COCCCP(=O)(O)O)CC1)OC(=O)CCCCCCCCCCC` [Compound 22, (3-((1-((R)-2-amino-3-(((R)-2,3-bis(dodecanoyloxy)propyl)thio)propanamido)cyclopropyl)methoxy)propyl)phosphonic acid], the concentration at 24 h amounted to 25300 nM in series [2] (setting [11]) and 0 nM in series [2] (compound alone).

For the compound `COCCOc1cc2c(nc(O)n2Cc2ccc(CP(=O)(O)O)cc2)c(N)n1` [Compound 67, (4-((4-amino-6-(2-methoxyethoxy)-2-oxo-2,3-dihydro-1H-imidazo[4,5-c]pyridin-1-yl)methyl)benzyl)phosphonic acid], in series [1], the solubility was greater than 1000 µg/mL. This compound gave an EC50 in series [5] of 6.5 µM. Also, the AUC turned out to be 3.57 µM·h in series [6] (setting [10]) and 8.11 µM·h in series [6] (+Al—H (adsorbed), 24 hours). The Cmax in series [6] (+Al—H (adsorbed)) turned out to be 4510 nM; in series [6] (compound alone), 4060 nM. The “effect of adsorption to Al—H on systemic cytokines” value (“effect of adsorption to Al—H” below) in series [7] is reported as “generally reduced or unaffected”. For the same compound, the “detection in muscle 24 hours” value is given as “readily detected” in series [2] (injected with Al—H) and “undetectable” in series [2] (without Al—H (free form)). Also, the concentration at 24 h in series [2] (setting [11]) is 2880 nM; in series [2] (compound alone), 0 nM. Moreover, the “SBA titers at day 28” value in series [8] was determined as 64.

For the compound `CCOCc1nc2c(N)nc3ccccc3c2n1CCOCCOCCOCCP(=O)(O)O` [Compound 68, (2-(2-(2-(2-(4-amino-2-(ethoxymethyl)-1H-imidazo[4,5-c]quinolin-1-yl)ethoxy)ethoxy)ethoxy)ethyl)phosphonic acid], the solubility in series [1] was greater than 1000 µg/mL. The same compound yielded an EC50 in series [5] of 28 µM. Besides, the AUC in series [6] (setting [10]) came to 1.39 µM·h; in series [6] (+Al—H (adsorbed), 24 hours) it was 2.76 µM·h. Besides, the maximum concentration (Cmax) was 1720 nM in series [6] (+Al—H (adsorbed)) and 2120 nM in series [6] (compound alone). Further, the “effect of adsorption to Al—H” value in series [7] is listed as “generally reduced or unaffected”. Further, the “detection in muscle 24 hours” value was “readily detected” in series [2] (injected with Al—H) and “undetectable” in series [2] (without Al—H (free form)). In addition, the results for the concentration at 24 h in series [2] (setting [11]) and in series [2] (compound alone) were 502 nM and 0 nM, respectively.

`CCCCCNc1nc(N)nc(C)c1Cc1ccc(CP(=O)(O)O)cc1` [Compound 69] displayed an EC50 in series [5] of 47.4 µM.

Regarding `CCCCCNc1nc(N)nc(C)c1Cc1ccc(OCCOCCC(F)(F)P(=O)(O)O)cc1OC` [Compound 71, (3-(2-(4-((2-amino-4-methyl-6-(pentylamino)pyrimidin-5-yl)methyl)-3-methoxyphenoxy)ethoxy)-1,1-difluoropropyl)phosphonic acid], the solubility in series [1] is greater than 1000 µg/mL. Besides, the EC50 in series [5] turned out to be 2.7 µM. For the same compound, the area under the curve (AUC) in series [6] (setting [10]) was found to be 2.09 µM·h; in series [6] (+Al—H (adsorbed), 24 hours) it was 4.22 µM·h. In addition, the figures for the Cmax in series [6] (+Al—H (adsorbed)) and in series [6] (compound alone) were 1810 nM and 2600 nM, respectively. Further, in series [7], the “effect of adsorption to Al—H” value was “generally reduced or unaffected”. For the same compound, the “detection in muscle 24 hours” value in series [2] (injected with Al—H) is reported as “readily detected”; in series [2] (without Al—H (free form)), “undetectable”. For the same compound, the concentration at 24 h was 924 nM in series [2] (setting [11]) and 0 nM in series [2] (compound alone). Further, the “SBA titers at day 28” value in series [8] is on record as 65.

Consider `CCCCCCCCCCCC(=O)OC[C@H](CSC[C@H](N)C(=O)NCCOCCOCCOCCP(=O)(O)O)OC(=O)CCCCCCCCCCC` [Compound 72, ((14R,18R)-14-amino-18-(dodecanoyloxy)-13,21-dioxo-3,6,9,20-tetraoxa-16-thia-12-azadotriacontyl)phosphonic acid], for which the concentration at 24 h in series [2] (setting [11]) is 14500 nM; in series [2] (compound alone), 0 nM.

In the case of `CCCCCCCCCCCCOC[C@H](CSC[C@H](N)C(=O)NCCOCCOCCOCCP(=O)(O)O)OCCCCCCCCCCCC` [Compound 74, ((14R,18R)-14-amino-18-(dodecyloxy)-13-oxo-3,6,9,20-tetraoxa-16-thia-12-azadotriacontyl)phosphonic acid], the AUC is 37.4 µM·h in series [6] (setting [12]) and 3.39 µM·h in series [6] (setting [13]). The Cmax worked out at 317 nM in series [6] (+Al—H (adsorbed)) and 1940 nM in series [6] (compound alone). For the same compound, the concentration at 24 h came out at 49000 nM in series [2] (setting [11]) and 27800 nM in series [2] (compound alone).

With `CCCCCCCCCCCCOC[C@H](CSC[C@H](N)C(=O)NCCOCCOCCOCCP(=O)(O)O)NC(=O)CCCCCCCCCCC` [Compound 80, ((14R,18R)-14-amino-18-dodecanamido-13-oxo-3,6,9,20-tetraoxa-16-thia-12-azadotriacontyl)phosphonic acid], the AUC in series [6] (setting [12]) worked out at 20.7 µM·h; in series [6] (setting [13]), 7.26 µM·h. Moreover, the highest concentration (Cmax) in series [6] (+Al—H (adsorbed)) worked out at 180 nM; in series [6] (compound alone), 2820 nM. Besides, the concentration at 24 h in series [2] (setting [11]) came to 47200 nM; in series [2] (compound alone), 5070 nM.

The record behind these values is US20120177681A1, “Formulation of immunopotentiators” (priority 2010, published 2012).
